In patent US20110263521A1, “PHARMACEUTICAL OR COSMETIC PREPARATIONS FOR TOPICAL AND/OR PARENTERAL APPLICATION, PREPARATION METHODS THEREOF AND USE OF SAME” (priority 2007, published 2011):

Tests used:
[1] = molecular target: T1, hyaluronidase of bovine origin (Bos taurus, UniProt Q2YDK3); experiment: Inhibitory effect of glycyrrhizin on hyaluronidase activity (turbidimetry of nonhydrolysed hyaluronic acid); format: biochemical; conditions: without preincubation with the enzyme; read-out: concentration of GLZ which gives 50% inhibition (IC50) of the hyaluronidase activity
T1 sequence (Q2YDK3 36-553): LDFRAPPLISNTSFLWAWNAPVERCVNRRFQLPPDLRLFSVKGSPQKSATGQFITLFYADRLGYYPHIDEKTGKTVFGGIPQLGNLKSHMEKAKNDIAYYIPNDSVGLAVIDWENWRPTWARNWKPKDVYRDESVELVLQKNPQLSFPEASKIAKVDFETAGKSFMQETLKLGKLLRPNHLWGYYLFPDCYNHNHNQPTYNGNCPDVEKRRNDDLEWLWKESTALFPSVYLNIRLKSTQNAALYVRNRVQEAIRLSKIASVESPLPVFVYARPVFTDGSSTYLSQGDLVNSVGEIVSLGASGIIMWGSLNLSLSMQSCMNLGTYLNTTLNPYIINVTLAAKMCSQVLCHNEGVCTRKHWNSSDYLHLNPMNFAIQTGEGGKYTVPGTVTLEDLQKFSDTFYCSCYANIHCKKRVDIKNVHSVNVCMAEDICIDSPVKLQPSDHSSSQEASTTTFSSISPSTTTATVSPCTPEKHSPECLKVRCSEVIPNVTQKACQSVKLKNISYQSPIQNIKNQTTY
Protocol: Determination of the IC50 of GLZ, with or without Preincubation at 37° C.:
GLZ, at various concentrations, is or is not preincubated for 20 minutes at 37° C. in the presence of the enzyme. The enzyme reaction is triggered by adding the hyaluronic acid solution (time T0). After incubation for 20 minutes, the nonhydrolysed hyaluronic acid is precipitated by adding acidic bovine albumin solution.
In order to verify that the preincubation step has no effect on the stability of the hyaluronidase, an aliquot of a solution of the enzyme is placed at 37° C. for 20 minutes. Another aliquot is conserved in an ice bath for 19 minutes, and is then incubated at 37° C. for 1 minute. A solution of hyaluronic acid is then added to each aliquot (TO). After incubation for 15, 30 or 45 minutes, the nonhydrolysed hyaluronic acid is precipitated by addition of acidic bovine albumin solution.
After the precipitation step, the turbidimetry of the solutions is determined on a spectrophotometer at a wavelength of 600 nm. The optical density (OD) of these solutions is subtracted from the OD of a control solution of hyaluronic acid (of the same concentration) not hydrolysed by the enzyme. This difference in OD, which is inversely proportional to the concentration of hyaluronic acid, is used to measure the activity of the hyaluronidase.

[2] = humans; cited from earlier work

| Molecule | IC50 [1] [µM] | excretion in the urine [2] |
| --- | --- | --- |
| CC1(C)[C@@H](O[C@H]2O[C@H](C(=O)O)[C@@H](O)[C@H](O)[C@H]2O[C@@H]2O[C@H](C(=O)O)[C@@H](O)[C@H](O)[C@H]2O)CC[C@]2(C)[C@H]3C(=O)C=C4[C@@H]5C[C@@](C)(C(=O)O)CC[C@]5(C)CC[C@@]4(C)[C@]3(C)CC[C@@H]12 [GLZ, Glycyrrhizin] | 400 |  |
| hyaluronic acid |  | less than 1 % of total clearance |
